Source: US20260217679A1, “CANCER TREATING COMPOUNDS” (UNIVERSITY OF BRADFORD, priority 2023, published 2026)
Like-named read-outs stand apart in the source and are kept apart here.

Legend:
RH30 = test: Anti-proliferative activity in RMS cell lines, MTT assay; assay type: cell-based; conditions: read-out: IC50 RH30
Protocol: (§1) Briefly, […] of a cell suspension (~2000 cells/well) was added in fresh, sterile 96-well plates. Afterwards, rhabdomyosarcoma (RMS) cell lines (RH30, RH41 and JR1) were incubated for 24 h at 37° C., 5% CO2 to allow cellular attachment on the surface of the wells. On the next day after cell seeding, cells were treated with the duocarmycin compounds. 20 μL of drug dilution was added into the wells, making up a final volume of 200 μL/well. In untreated control wells, 20 μL of fresh medium was added instead (0.1% DMSO). Duocarmycin stock concentrations were prepared in DMSO; the concentration of the latter in the wells containing the medium and cells never exceeded 0.1% (v/v). The concentrations tested ranged from 100 μM to 1 pM depending on the IC50 of each compound from preliminary screening. Each experiment was tested at least in triplicate, and antiproliferative activity was determined after 96 hours using a standard MTT (3-(4,5-dimethylthiazol-2-yl)-2,5-diphenyltetrazolium bromide) assay.

RH41 = test: as above; assay type: cell-based; conditions: Homo sapiens, read-out: IC50 RH41
Protocol: as §1

JR1 = test: as above; assay type: cell-based; conditions: read-out: IC50 JR1
Protocol: as §1

[1] = system: H2AX phosphorylation in MDA-MB-231; test: H2AX phosphorylation Western Blot as marker of double-stranded DNA damage; assay type: cell-based, human; conditions: MDA-MB-231, Western Blot, FIG. 1
Source text: The mechanism of action of the naturally occurring duocarmycins is well documented and involves spirocyclization of the seco-duocamycins including those derived from the CBI and other aryl-ring-fused subunits of the duocarmycin alkylating subunit.

MCF-7 = test: Growth inhibition of MCF-7 (oestrogen receptor positive) breast cancer cell line; assay type: cell-based; conditions: Homo sapiens
Protocol: (§2) The compounds of the present invention were evaluated for their ability to inhibit the growth of MDA-MB-231 (triple-negative) and MCF-7 (oestrogen receptor positive) breast cancer cell lines. A positive control (PC), seco-CBI-MI, with structure shown below, was used as a baseline for comparison of the efficacy of the compounds of the present invention.

MDA-MB-231 = test: Growth inhibition of MDA-MB-231 (triple-negative) breast cancer cell line; assay type: cell-based; conditions: Homo sapiens
Protocol: as §2

[2] = MDA-MB-231, read-out: IC50 MDA MB 231
[3] = MCF7, MCF-7 growth inhibition, read-out: IC50 MCF7
[4] = MDA-MB-231 growth inhibition, read-out: IC50 MDA MB 231

| Structure (SMILES) | IC50 (RH30; RH30, 96 hours, MTT) [nM] | IC50 (RH41; RH41, 96 hours, MTT) [nM] | IC50 (JR1; JR1, 96 hours, MTT) [nM] | DNA damage measured using H2AX phosphorylation [1] | IC50 (RH30; Rh30, 96 h) [nM] | IC50 (RH41; Rh41, 96 h) [nM] | IC50 (JR1; 96 h) [nM] | IC50 (MCF-7; MCF7, read-out: IC50 MCF7) [nM] | IC50 (MDA-MB-231; [2]) [nM] | IC50 (MCF-7; [3]) [nM] | IC50 (MDA-MB-231; [4]) [nM] |
| --- | --- | --- | --- | --- | --- | --- | --- | --- | --- | --- | --- |
| COc1ccc2[nH]c(C(=O)N3CC(CCl)c4c3cc(O)c3ccccc43)cc2c1 (centres unmarked) [DP31] | 0.0861 ± 0.0248 | 0.0368 ± 0.0316 | 0.243 ± 0.308 | generated DNA damage | – | – | – | – | – | – | – |
| COc1ccc2[nH]c(C(=O)N3CC(CCl)c4c3cc(-c3ccc(O)cc3)c3ccccc43)cc2c1 (centres unmarked) [DP36] | – | – | – | generated DNA damage | 6.69 ± 4.33 | 24.9 ± 34 | 7.28 ± 6.1 | 20 ± 27.1 | 23.3 ± 9.9 | – | – |
| O=C(c1cc2cc(O)ccc2[nH]1)N1CC(CCl)c2c1cc(OCc1ccccc1)c1ccccc21 (centres unmarked) [DP40] | 227 ± 307 | 530 ± 514 | 1400 ± 1240 | – | – | – | – | – | – | 1300 ± 100 | 2200 ± 200 |
| C#CCCC(=O)Oc1ccc2[nH]c(C(=O)N3CC(CCl)c4c3cc(OCc3ccccc3)c3ccccc43)cc2c1 (centres unmarked) [DP42] | – | – | – | – | 81.5 ± 77.3 | 378 ± 209 | 278 ± 156 | – | 3200 ± 2900 | – | – |
| COc1ccc2[nH]c(C(=O)N3CC(CCl)c4c3cc(-c3ccc(CO)cc3)c3ccccc43)cc2c1 (centres unmarked) [DP44] | – | – | – | – | 2190 ± 3100 | 2800 ± 1960 | 4860 ± 4780 | 4800 ± 4800 | 5400 ± 5800 | – | – |
| COc1ccc2[nH]c(C(=O)N3CC(CCl)c4c3cc(-c3ccc(C)cc3)c3ccccc43)cc2c1 (centres unmarked) [DP45] | – | – | – | generated DNA damage | 56700 ± 37600 | 68000 ± 50700 | 32900 ± 29100 | > 10000 | > 10000 | – | – |
| COc1ccc2[nH]c(C(=O)N3CC(CCl)c4c3cc(-c3cccc(O)c3)c3ccccc43)cc2c1 (centres unmarked) [DP47] | – | – | – | generated DNA damage | 60.3 ± 49.1 | 19.2 ± 20.9 | 59.2 ± 27.2 | 104 ± 79.8 | 206 ± 79.6 | – | – |
| COc1ccc2[nH]c(C(=O)N3CC(CCl)c4c3cc(-c3ccc(N)cc3)c3ccccc43)cc2c1 (centres unmarked) [DP48] | – | – | – | – | 355 ± 352 | 581 ± 648 | 5170 ± 4280 | 713 | 911 | – | – |
| C#CCCCC(=O)Oc1ccc2[nH]c(C(=O)N3CC(CCl)c4c3cc(OCc3ccccc3)c3ccccc43)cc2c1 (centres unmarked) [DP51] | – | – | – | – | 1220 ± 830 | 2510 ± 1160 | 18500 ± 9640 | – | > 10000 | – | – |
| COc1ccc(Nc2cc3c(c4ccccc24)C(CCl)CN3C(=O)c2cc3cc(OC)ccc3[nH]2)cc1 (centres unmarked) [DP59] | 0.376 ± 0.157 | 0.298 ± 0.154 | 1.33 ± 1.93 | generated DNA damage | – | – | – | – | – | 2.5 ± 0.7 | 7.6 ± 2.1 |
| CCCCNc1cc2c(c3ccccc13)C(CCl)CN2C(=O)c1cc2cc(OC)ccc2[nH]1 (centres unmarked) [DP63] | 0.101 ± 0.048 | 0.0204 ± 0.0114 | 0.217 ± 0.287 | – | – | – | – | – | – | 0.8 ± 0.3 | 1.7 ± 1.4 |
| COC(=O)[C@H](CC(C)C)Nc1cc2c(c3ccccc13)C(CCl)CN2C(=O)c1cc2cc(OC)ccc2[nH]1 (some centres unmarked) [DP65] | 0.0763 ± 0.129 | 0.00551 ± 0.00229 | 0.323 ± 0.291 | generated DNA damage | – | – | – | – | – | 8.1 ± 7 | 28.3 ± 29 |
| COc1ccc2[nH]c(C(=O)N3CC(CCl)c4c3cc(Nc3ccc(C(F)(F)F)cc3)c3ccccc43)cc2c1 (centres unmarked) [DP70] | 18.9 ± 18.9 | 31.2 ± 28.8 | 44.6 ± 56.1 | generated DNA damage | – | – | – | – | – | 76.7 ± 29 | 129 ± 18.9 |
| COc1ccc2[nH]c(C(=O)N3CC(CCl)c4c3ccc3ccc(OCc5ccccc5)cc43)cc2c1 (centres unmarked) [DP77] | – | – | – | – | 3080 ± 2570 | 22500 ± 17400 | 22100 ± 19600 | > 10000 | > 10000 | – | – |
| COc1ccc2[nH]c(C(=O)N3CC(CCl)c4c3ccc3ccc(O)cc43)cc2c1 (centres unmarked) [DP78] | – | – | – | – | 268 ± 130 | 500000 ± 416000 | 3510 ± 1840 | 1020 ± 200 | 1080 ± 200 | – | – |
| COc1ccc(-c2cc3c(c4ccccc24)C(CCl)CN3C(=O)c2cc3cc(OC)ccc3[nH]2)cc1 (centres unmarked) [ICT11038, (1-(Chloromethyl)-5-(4-methoxyphenyl)-1H-benzo[e]indol-3(2H)-yl)(5-methoxy-1H-indol-2-yl)methanone] | – | – | – | – | 35.8 ± 16.4 | 121000 ± 95300 | 801000 ± 207000 | – | – | – | – |
| COCc1ccc(-c2cc3c(c4ccccc24)C(CCl)CN3C(=O)c2cc3cc(OC)ccc3[nH]2)cc1 (centres unmarked) [ICT11039, (1-(Chloromethyl)-5-(4-(methoxymethyl)phenyl)-1H-benzo[e]indol-3(2H)-yl)(5-methoxy-1H-indol-2-yl)methanone] | – | – | – | – | 12800 ± 8460 | 1140 ± 500 | 10100 ± 5780 | – | – | – | – |
| COc1ccc2[nH]c(C(=O)N3CC(CCl)c4c3cc(-c3ccncc3)c3ccccc43)cc2c1 (centres unmarked) [ICT11040, (1-(Chloromethyl)-5-(pyridin-4-yl)-1H-benzo[e]indol-3(2H)-yl)(5-methoxy-1H-indol-2-yl)methanone] | – | – | – | – | 494 ± 267 | 576 ± 405 | 861 ± 329 | – | – | – | – |
| COc1ccc2[nH]c(C(=O)N3CC(CCl)c4c3cc(-c3cccnc3)c3ccccc43)cc2c1 (centres unmarked) [ICT11041, (1-(Chloromethyl)-5-(pyridin-3-yl)-1H-benzo[e]indol-3(2H)-yl)(5-methoxy-1H-indol-2-yl)methanone] | – | – | – | – | 8040 ± 1030 | 6000 ± 5120 | 12200 ± 4580 | – | – | – | – |
| COc1ccc2[nH]c(C(=O)N3CC(CCl)c4c3cc(-c3ccccc3)c3ccccc43)cc2c1 (centres unmarked) [ICT11043, (1-(Chloromethyl)-5-phenyl-1H-benzo[e]indol-3(2H)-yl)(5-methoxy-1H-indol-2-yl)methanone] | – | – | – | – | 56000 ± 17000 | 30200 ± 23100 | 138000 ± 75800 | – | – | – | – |
| COc1ccc2[nH]c(C(=O)N3CC(CCl)c4c3cc(-c3ccccc3O)c3ccccc43)cc2c1 (centres unmarked) [ICT11044, (1-(Chloromethyl)-5-(2-hydroxyphenyl)-1H-benzo[e]indol-3(2H)-yl)(5-methoxy-1H-indol-2-yl)methanone] | – | – | – | – | 124 ± 134 | 291 ± 204 | 422 ± 177 | – | – | – | – |
| COc1ccc2[nH]c(C(=O)N3CC(CCl)c4c3cc(O)c3ccccc43)cc2c1 (centres unmarked) [PC, seco-CBI-MI, reference compound] | – | – | – | – | – | – | – | – | – | 0.69 ± 0.3 | 0.62 ± 0.5 |
